Values of other authors as cited in patent publication US10085951B2, “Curcuminoid formulations and related methods of treatment” (DESIGNS FOR HEALTH, INC., priority 2014, dated 2018).

Solubility in ethanol, dimethylsulfoxide and acetone: soluble
Solubility in water and ether: practically insoluble
Structure (SMILES): COc1cc(/C=C/C(=O)CC(=O)/C=C/c2ccc(O)c(OC)c2)ccc1O [curcumin, 1,6-heptadiene-3,5-dione1,7-bis (4-hydroxy-3-methoxyphenyl)-(1E,6E)]
